Data: paper PMC6717000 (Biosensors & bioelectronics, 2019)

System: Acid phosphatase from potato (AcP)
Assay: phenolCEST MRI of released phenol, initial velocity over […] min
Format: biochemical, Solanum tuberosum
Details: pH 5.0, 37 °C, 10 mM acetate buffer, 10 mM Mg2+

How did the Km turn out when `O=P(O)(O)Oc1ccccc1` [PP, phenyl phosphate] was run?
The Km was 3.5 mM.
